From US20090221829A1 (priority 2005, published 2009)
Where two headings read alike, the source gives them in different places.

How the values were obtained:
[1] = system: Candida albicans(KCTC 1940), Aspergillus niger (ATCC 9642) and Saccharomyces cerevisiae; test: Relative antifungal activity by agar dilution method (vs Miconazole); format: cell-based;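 note: scores 5 to 7 mean a lower fungicidal concentration than Miconazole so higher is more potent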
Source text: Novel compounds represented by the above chemical formula (I), and the relative activities in accordance with the agar dilution method in Sabouraud dextrose agar media, Czapek agar media and Yeast Extract-Peptone-Dextrose agar media for Candida albicans(KCTC 1940), Aspergillus niger (ATCC 9642) and Saccharomyces cerevisiae are described respectively in following Table 1.

[2] = biological target: sterol-24-methyl transferase (Candida albicans, UniProt O74198); format: biochemical; conditions: in vitro, read-out: Relative Activity (IC50 class)
Chain of sterol-24-methyl transferase (O74198 whole entry): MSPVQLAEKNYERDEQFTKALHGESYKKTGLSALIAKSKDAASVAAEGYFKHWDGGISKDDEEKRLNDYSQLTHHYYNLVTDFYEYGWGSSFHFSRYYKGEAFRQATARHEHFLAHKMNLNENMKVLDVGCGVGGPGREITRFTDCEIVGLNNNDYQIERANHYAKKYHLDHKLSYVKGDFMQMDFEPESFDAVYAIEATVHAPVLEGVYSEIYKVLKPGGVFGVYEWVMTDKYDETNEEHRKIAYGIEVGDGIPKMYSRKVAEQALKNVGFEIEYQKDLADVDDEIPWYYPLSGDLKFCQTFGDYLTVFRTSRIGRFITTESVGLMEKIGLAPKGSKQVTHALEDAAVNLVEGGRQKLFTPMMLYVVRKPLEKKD
Source text: Moreover, the relative activity for sterol-24-methyl transferase of the above compound in Table 11 is described in Table 13.

various kinds of Candida = test: MIC (Minimal Inhibitory Concentration) data; format: cell-based; conditions: unit assumed
[3] = Oral toxicity test (general symptoms, weight change, lethal case); format: in vivo, rats (SD); conditions: for LD50: SD, rat, in vivo, 1000 mg/kg, rats, oral, read-out: Acute toxicity LD50; for general symptom / lethal case / weight change: oral, 1,000 mg/kg, suspended in propylene glycol, SD rats
Protocol: Meanwhile, the toxicity test of the compound in table II of the present invention was performed using […]. The compound was suspended in propylene glycol. The resulting suspension was medicated respectively on 6 female rats and 5 male rats (SD) of which age are 5 weeks, via oral after 12 hours starvation. The general symptoms, weight change and lethal case of the above rats were investigated.
In cases of the tests of the compounds (Compound No. 12, 119, 134, 148, 150)(delivery of 1,000 mg/kg), the general symptom and weight change were normal and the lethal case was not observed.

salmonella typhimurium = test: Bacterial reverse mutation test (Ames test); format: cell-based
[4] = system: cultured lung cells derived from chinese hamster; test: Chromosome aberration test; format: cell-based
Micronucleus test = format: in vivo; conditions: for Genetic toxicity Nucleus test: male ICR mice; for micronucleus test result: mouse, in vivo
[5] = agar dilution method, fungicidal concentration relative to control drug Miconazole (=4)
[6] = antifungal activity relative to Miconazole, agar dilution

Compound | Relative Activity [1, 5] | IC50 [2] [µM] | MIC (various kinds of Candida; C. albicans ATCC 11651) [µg/mL] | MIC (various kinds of Candida; C. albicans ATCC 28838) [µg/mL] | MIC (various kinds of Candida; C. albicans IFO 1385) [µg/mL] | MIC (various kinds of Candida; C. albicans OY-003) [µg/mL] | MIC (various kinds of Candida; C. albicans OY-019) [µg/mL] | MIC (various kinds of Candida; C. albicans U.K) [µg/mL] | MIC (various kinds of Candida; C. glabrata) [µg/mL] | MIC (various kinds of Candida; C. glulliermondi) [µg/mL] | MIC (various kinds of Candida; C. krusei (KCTC7273)) [µg/mL] | MIC (various kinds of Candida; C. parapsilosis) [µg/mL] | LD50 ([3]; female) [mg/kg] | LD50 ([3]; male) [mg/kg] | general symptom [3] | lethal case [3] | weight change [3] | Genetic toxicity AMES test (salmonella typhimurium) | bacterial reverse mutation test (Ames test) result (salmonella typhimurium) | Genetic toxicity Chromosome abmormality test [4] | other results
CCCCCCCCCCCC1=[N+](Cc2ccc(C(C)(C)C)cc2)CCc2cc3c(cc21)oc(=O)n3C.[Br-] [Compound No. 115, 7,8-dihydro-1-methyl-6-(4-t-butylphenyl)methyl-5-undecyloxazolo[4,5-g]isoquinolinium-2 (1H)-one bromide] | 2 | 5 to 50 |  |  |  |  |  |  |  |  |  |  |  |  |  |  |  |  |  |  | 
CCCCCCCCCCCC1=[N+](Cc2ccccc2F)CCc2cc(OC)c(OC)cc21.[Cl-] [Compound No. 12, 1-n-undecyl-2-(2-fluorophenyl)methyl-3,4-dihydro-6,7-dimethoxyisoquinolinium chloride] | 2 |  | 1.56 | 1.56 | 3.12 | 1.56 | 3.12 | 1.56 | 1.56 | 1.56 | 6.25 | 1.56 | > 1000 | > 1500 | normal | not observed | normal | negative | negative | negative | chromosome aberration test result [4]: negative; Genetic toxicity Nucleus test (Micronucleus test): negative; micronucleus test result (Micronucleus test): negative
COc1cc2cc[n+](Cc3cccc(OC)c3OCc3c(F)cccc3Cl)c(CCc3ccc(C(C)(C)C)cc3)c2cc1OC [Compound No. 150, 1-(2-(4-t-butylphenyl))ethyl-2-(2-(2-chloro-6-fluorobenzyloxy)-3-methoxyphenyl)methyl-6,7-dimethoxyisoquinolinium chloride] |  |  | 1.56 | 1.56 | 6.25 | 0.78 | 1.56 | 0.78 | 12.5 | 1.6 | 1.56 | 12.5 | > 1500 | > 2000 | normal | not observed | normal | negative | negative | negative | Relative Activity [1, 6]: 1; chromosome aberration test result [4]: negative; Genetic toxicity Nucleus test (Micronucleus test): negative; micronucleus test result (Micronucleus test): negative
CCCCCCCCOc1c(C[N+]2=C(CCc3ccc(C(C)(C)C)cc3)c3cc(OC)c(OC)cc3CC2)cccc1OC [Compound No. 134, 1-(2-(4-t-butylphenyl))ethyl-2-(2-octyloxy-3-methoxyphenyl)methyl-3,4-dihydro-6,7-dimethoxy isoquinolinium chloride] | 1 |  | 3.12 | 1.56 | 3.12 | 1.56 | 1.56 | 1.56 | 3.12 | 1.56 | 3.12 | 6.25 | > 1000 | > 1200 | normal | not observed | normal | negative | negative | negative | chromosome aberration test result [4]: negative; Genetic toxicity Nucleus test (Micronucleus test): negative; micronucleus test result (Micronucleus test): negative
CCCCCCCCCCCC1=[N+](Cc2ccc(N)cc2)CCc2cc(OC)c(OC)cc21.Cl.[Cl-] [Compound No. 121, 3,4-dihydro-6,7-dimethoxy-2-(4-ammoniumphenyl)methyl-1-undecylisoquinolinium dichloride] | 2 | 5 to 50 | 3.12 | 0.78 | 1.56 | 3.12 | 3.12 | 3.12 | 1.56 | 0.78 | 1.56 | 1.56 |  |  |  |  |  |  |  |  | 
COc1cc2cc[n+](Cc3cccc(OC)c3OCc3c(F)c(F)c(C(F)(F)F)c(F)c3F)c(CCc3ccc(C(C)(C)C)cc3)c2cc1OC.[Cl-] [Compound No. 151, 1-(2-(4-t-butylphenyl))ethyl-2-(2-(2,3,5,6-tetrafluoro-4-trifluoromethylbenzyloxy)-3-methoxyphenyl)methyl-6,7-dimethoxyisoquinolinium chloride] |  | < 5 | 3.12 | 3.12 | 6.25 | 1.56 | 3.12 | 1.56 | 3.25 | 1.56 | 1.56 | 12.5 |  |  |  |  |  |  |  |  | Relative Activity [1, 6]: 1
CCCCCCCCCCCC1=[N+](c2ccc(C(C)(C)C)cc2)CCc2cc(CNC(=O)OCC)ccc21.[Br-] [Compound No. 118, ethyl 3,4-dihydro-2-(4-t-butylphenyl)-1-undecylisoquinolinium-6-ylmethylcabamate bromide] | 2 | 5 to 50 |  |  |  |  |  |  |  |  |  |  |  |  |  |  |  |  |  |  | 
CCCCCCCCOc1c(C[n+]2ccc3cc(OC)c(OC)cc3c2CCc2ccc(C(C)(C)C)cc2)cccc1OC [Compound No. 148, 1-(2-(4-t-butylphenyl))ethyl-2-(2-octyloxy)-3-dimethoxyphenyl)methyl-6,7-dimethoxyisoquinolinium chloride] |  |  | 1.56 | 1.56 | 1.56 | 1.56 | 1.56 | 1.56 | 3.12 | 1.56 | 1.56 | 3.12 | > 1200 | > 1500 | normal | not observed | normal | negative | negative | negative | Relative Activity [1, 6]: 1; MIC (various kinds of Candida; C. albicnas ATCC 10231): 0.78 µg/mL; chromosome aberration test result [4]: negative; Genetic toxicity Nucleus test (Micronucleus test): negative; micronucleus test result (Micronucleus test): negative
CCCCCCCCCCCC1=[N+](Cc2ccc(NC(=O)OC(C)(C)C)cc2)CCc2cc(OC)c(OC)cc21.[Cl-] [Compound No. 120, 2-(4-t-butylalcoholcarbonylaminophenyl)methyl-3,4-dihydro-6,7-dimethoxy-1-undecylisoquinolinium chloride] |  | < 5 | 1.56 | 1.56 | 3.12 | 1.56 | 3.12 | 1.56 | 6.25 | 3.12 | 1.56 | 3.12 |  |  |  |  |  |  |  |  | 
